16 compounds from patent publication US10385045B2, “Compound having EP2 agonist activity” (ONO PHARMACEUTICAL CO., LTD., priority 2015, dated 2019) can be followed below.

Structures are written as SMILES. A value given as a limit tells only on which side of the number the result lay.

Test system in one test: not listed separately
In words: Intraocular pressure lowering activity after ocular instillation in rabbit. The format is in vivo. The conditions noted are these: male rabbit (NZW), ocular instillation 30 μL, administration concentration 10 μg/mL, 8 hours after the administration. On the procedure: As can be easily understood by a person skilled in the art, in an in vivo test, since regarding all test compounds, carboxylic acid which is an active body has poor corneal permeability, pharmacological action of the active body was evaluated by ocular instillation administration of a compound which had been converted into an ester such as an ethyl ester or an isopropyl ester, or an alcohol.
A test compound-containing solution (30 μL) which had been adjusted to each of various concentrations was ocular instillation-administered to the left or right eye of a male rabbit (NZW (Healthy)) under consciousness, and an intraocular pressure was measured before the administration and 8 hours after the administration. An intraocular pressure before the administration was measured on a day before the administration. In measurement of an intraocular pressure, the rabbit was fixed on a wood-made restrainer, and the rabbit was anesthetized by the ocular instillation-administration of an ocular surface anesthetic agent (Benoxil eye drops 0.4%, Santen Pharmaceutical Co., Ltd.). After fitting a blepharostat (Handaya Co., Ltd.) to the rabbit, intraocular pressures of both eyes were measured (6 cases per group) with a pneumatic applanation flat tonometer (Model 30 Classic, REICHERT). A difference between an intraocular pressure value before the administration of a test compound and an intraocular pressure value after the administration of the test compound was calculated as an intraocular pressure lowering rate in accordance with the equation shown below, and the sustainability of intraocular eye lowering action was evaluated.
The administered concentrations were selected on the basis of the EP2 agonist activities measured by the above-mentioned method.
Consider `CC(C)OC(=O)c1csc([C@H]2CC[C@@H]3[C@@H](/C=C/COc4ccccc4C(F)(F)F)[C@H](O)C[C@@H]3O2)n1` [Example 4-3, Isopropyl 2-[(2R,4aR,5R,6R,7aS)-6-hydroxy-5-{(1E)-3-[2-(trifluoromethyl)phenoxy]-1-propen-1-yl}octahydrocyclopenta[b]pyran-2-yl]-1,3-thiazole-4-carboxylate], for which the “Intraocular pressure lowering rate (%)” value is reported as 12.1%. Take `COc1ccc(OCCC/C=C/[C@@H]2[C@H]3CC[C@H](c4nc(C(=O)OC(C)C)cs4)O[C@H]3C[C@H]2O)cc1` [Example 4, Isopropyl 2-{(2R,4aR,5R,6R,7aS)-6-hydroxy-5-[(1E)-5-(4-methoxyphenoxy)-1-penten-1-yl]octahydrocyclopenta[b]pyran-2-yl}-1,3-thiazole-4-carboxylate]: the “Intraocular pressure lowering rate (%)” value was 19.1%. On the same count and under the same terms, with `Cc1cc(OCC[C@@H]2[C@H]3CC[C@H](c4nc(C(=O)OC(C)C)cs4)O[C@H]3C[C@H]2O)ccc1[N+](=O)[O-]` [Example 14, Isopropyl 2-{(2R,4aR,5R,6R,7aS)-6-hydroxy-5-[2-(3-methyl-4-nitrophenoxy)ethyl]octahydrocyclopenta[b]pyran-2-yl}-1,3-thiazole-4-carboxylate] the figure was 23.6%.

In a further test the target is T1, human EP2 receptor (Homo sapiens, UniProt P43116).
T1 construct: expressed in transfected cells; host or cells: CHO cells (EP2-CHO)
T1 sequence (P43116 whole entry): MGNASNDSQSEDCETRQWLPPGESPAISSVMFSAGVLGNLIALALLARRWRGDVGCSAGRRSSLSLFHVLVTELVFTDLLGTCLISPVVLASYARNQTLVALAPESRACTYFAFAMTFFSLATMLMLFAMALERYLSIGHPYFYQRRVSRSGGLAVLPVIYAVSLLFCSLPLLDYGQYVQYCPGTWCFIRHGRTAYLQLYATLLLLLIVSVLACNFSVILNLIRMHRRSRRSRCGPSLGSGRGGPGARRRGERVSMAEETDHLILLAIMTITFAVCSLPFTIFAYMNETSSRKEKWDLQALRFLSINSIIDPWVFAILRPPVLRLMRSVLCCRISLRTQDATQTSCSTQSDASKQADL
In words: Measurement of EP2 agonist activity (cAMP concentration) in EP2-CHO cells. The format is cell-based. The following applies: EP2-CHO cells, cAMP production, 30 minutes at room temperature; read-out: EC50 (agonist activity on human EP2 receptor). On the procedure: (1) Measurement of Agonist Activity on Various Prostanoid Receptors
Using Chem1 cells or CHO cells in which various prostanoid receptors were forcibly expressed, respectively, agonist activities of test compounds on various prostanoid receptors was determined employing, as a measure, an intracellular cyclic AMP (hereinbelow, abbreviated as “cAMP”) production amount or an intracellular calcium concentration.
Each of the test compound and a control substance (PGE2 and PGF2α) was dissolved in dimethyl sulfoxide (DMSO) to prepare a 10 mmol/L solution. The 10 mmol/L solution thus prepared was thawed upon use, was then serially diluted with DMSO, and was then diluted with a buffered solution for measurement or a buffered solution for measurement 2, and then the resulting solution was subjected to an experiment.
Cells, in which various prostanoid receptors were respectively forcibly expressed, were subjected to static culture at 37° C. in the presence of 5% CO2 using a DMEM medium (Sigma) (for culturing FP-Chem1 cells) containing inactivated (56° C., 30 minutes) 9.8 vol % nondialysed-FBS (Life Technologies), 1 vol % Non Essential Amino Acids (Life Technologies), 10 mmol/L HEPES Buffered solution (Life Technologies), 0.5 vol % GENETICIN (Life Technologies) and 1% penicillin-streptomycin (Life Technologies) or an α-MEM medium (Sigma) (for culturing EP2-CHO cells) containing inactivated (56° C., 30 minutes) 9.8 vol % dialysed-FBS (Life Technologies) and penicillin-streptomycin-glutamine (Life Technologies). Subculturing was carried out in the following manner.
The medium was removed from a culture, and the culture was washed with Ca^2+-free and Mg^2+-free phosphate-buffered physiological saline one time. A proper amount of trypsin-EDTA (Life Technologies) was added to the washed product, and then the resultant product was incubated at 37° C. The cells were detached, and then a medium in a volume that is 10-fold the volume of trypsin-EDTA was added thereto to terminate the enzymatic reaction. The cells were collected in a centrifuge tube and then centrifuged at room temperature at 120 g for 3 minutes, and the supernatant was discarded therefrom. The cells were suspended in a proper amount of the medium and seeded in a culture flask.
On the day of measurement, a medium was removed and EP2-CHO cells were washed one time with a phosphate-buffered physiological saline containing 2 mmol/L EDTA and not containing Ca^2+ and Mg^2+. A proper amount of the phosphate-buffered physiological saline containing 2 mmol/L EDTA and not containing Ca^2+ and Mg^2+ was added to the cells, and this was incubated at 37° C. in the presence of 5% CO2. Subsequently, the cells were detached, then collected in a centrifuge tube and then centrifuged at room temperature at 550 g for 3 minutes, and the supernatant was removed therefrom. The cells were suspended in a proper amount of a buffered solution for measurement 1 (a MEM medium (Invitrogen) containing 1.0 w/v % of bovine serum albumin (Sigma) and 2 μmol/L of diclofenac (Sigma)), and the suspension was centrifuged at room temperature at 200 g for 3 minutes, and the supernatant was removed. The cells were suspended in a buffered solution for measurement 2 (MEM medium (Invitrogen) containing 1.0 w/v % of bovine serum albumin (Sigma), 2 μmol/L of diclofenac (Sigma) and 1 mmol/L of 3-isobutyl-1-methylxanthine), and each 25 μL of the suspension was dispensed into a 96-well ½ area plate so that the number of cells per well became […]. The buffered solution for measurement 2 (25 μL) containing a compound at each of various concentrations was added to each well to carry out a reaction at room temperature for 30 minutes. Measurement of a cAMP concentration was carried out using cAMP HTRF HiRange kit (CIS bio International). In accordance with the two-step protocol of the kit manual, each 25 μL of cAMP-D2 and Cryptase each diluted with a lysis buffer were added. […]
On to `CCCCCC(F)(F)/C=C/[C@@H]1[C@H]2CC[C@H](c3nc(C(=O)O)cs3)O[C@H]2C[C@H]1O` [Example 8, 2-{(2R,4aR,5R,6R,7aS)-5-[(1E)-3,3-Difluoro-1-octen-1-yl]-6-hydroxyoctahydrocyclopenta[b]pyran-2-yl}-1,3-thiazole-4-carboxylic acid], for which the EC50 (in general, the concentration at which the effect is half-maximal) amounted to 0.4 nM. On the same count and under the same terms, with `O=C(O)c1csc([C@H]2CC[C@@H]3[C@@H](/C=C/CCOc4ccccc4)[C@H](O)C[C@@H]3O2)n1` [Example 2-2, 2-{(2R,4aR,5R,6R,7aS)-6-Hydroxy-5-[(1E)-4-phenoxy-1-buten-1-yl]octahydrocyclopenta[b]pyran-2-yl}-1,3-thiazole-4-carboxylic acid] the figure was 3.9 nM.

Turning to `Cc1ccc(OC/C=C/[C@@H]2[C@H]3CC[C@H](c4nc(C(=O)O)cs4)O[C@H]3C[C@H]2O)cc1` [Example 2-9, 2-{(2R,4aR,5R,6R,7aS)-6-Hydroxy-5-[(1E)-3-(4-methylphenoxy)-1-propen-1-yl]octahydrocyclopenta[b]pyran-2-yl}-1,3-thiazole-4-carboxylic acid], the EC50 was determined as 5.8 nM. Regarding `COc1ccc(OCCC/C=C/[C@@H]2[C@H]3CC[C@H](c4nc(C(=O)O)cs4)O[C@H]3C[C@H]2O)cc1` [Example 2-1, 2-{(2R,4aR,5R,6R,7aS)-6-Hydroxy-5-[(1E)-5-(4-methoxyphenoxy)-1-penten-1-yl]octahydrocyclopenta[b]pyran-2-yl}-1,3-thiazole-4-carboxylic acid], the half-maximal effective concentration (EC50) was determined as 1.8 nM.

Take `N#Cc1ccc(CCC(O)/C=C/[C@@H]2[C@H]3CC[C@H](c4nc(C(=O)O)cs4)O[C@H]3C[C@H]2O)cc1` (stereo partly drawn) [Example 10, 2-{(2R,4aR,5R,6R,7aS)-5-[(1E)-5-(4-Cyanophenyl)-3-hydroxy-1-penten-1-yl]-6-hydroxyoctahydrocyclopenta[b]pyran-2-yl}-1,3-thiazole-4-carboxylic acid]: the EC50 is 0.29 nM. Still for that read-out and setting: next, `O=C(O)c1csc([C@H]2CC[C@@H]3[C@@H](/C=C/COc4ccccc4C(F)(F)F)[C@H](O)C[C@@H]3O2)n1` [Example 2-16, 2-[(2R,4aR,5R,6R,7aS)-6-Hydroxy-5-{(1E)-3-[2-(trifluoromethyl)phenoxy]-1-propen-1-yl}octahydrocyclopenta[b]pyran-2-yl]-1,3-thiazole-4-carboxylic acid]: 1.3 nM; `O=C(O)c1csc([C@H]2CC[C@@H]3[C@@H](/C=C/CCCOc4ccccc4)[C@H](O)C[C@@H]3O2)n1` [Example 2-4, 2-{(2R,4aR,5R,6R,7aS)-6-Hydroxy-5-[(1E)-5-phenoxy-1-penten-1-yl]octahydrocyclopenta[b]pyran-2-yl}-1,3-thiazole-4-carboxylic acid]: 14 nM; `O=C(O)c1csc([C@H]2CC[C@@H]3[C@@H](/C=C/C(O)CCC4CCCC4)[C@H](O)C[C@@H]3O2)n1` (stereo partly drawn) [Example 10-3, 2-{(2R,4aR,5R,6R,7aS)-5-[(1E)-5-Cyclopentyl-3-hydroxy-1-penten-1-yl]-6-hydroxyoctahydrocyclopenta[b]pyran-2-yl}-1,3-thiazole-4-carboxylic acid]: 0.11 nM.

As to `CCC1([C@@H](O)C/C=C/[C@@H]2[C@H]3CC[C@H](c4nc(C(=O)O)cs4)O[C@H]3C[C@H]2O)CCC1` [Example 11-2, 2-{(2R,4aR,5R,6R,7aS)-5-[(1E,4S)-4-(1-Ethylcyclobutyl)-4-hydroxy-1-buten-1-yl]-6-hydroxyoctahydrocyclopenta[b]pyran-2-yl}-1,3-thiazole-4-carboxylic acid], the concentration giving a half-maximal response (EC50) worked out at 0.1 nM. Consider `Cc1cc(OCC[C@@H]2[C@H]3CC[C@H](c4nc(C(=O)O)cs4)O[C@H]3C[C@H]2O)ccc1[N+](=O)[O-]` [Example 13-20, 2-{(2R,4aR,5R,6R,7aS)-6-Hydroxy-5-[2-(3-methyl-4-nitrophenoxy)ethyl]octahydrocyclopenta[b]pyran-2-yl}-1,3-thiazole-4-carboxylic acid], for which the EC50 came to 5.7 nM.

Still in this test, the particulars now being: comparison compounds from prior art documents; read-out: EC50 (EP2 agonist activity) of prior art compounds with analogous structure.
Consider `O=C(O)c1ccc(C2=CC[C@@H]3[C@@H](/C=C/[C@@H](O)C4CCCC4)[C@H](O)C[C@@H]3O2)o1` [reference compound], for which the 50% effective concentration (EC50) was no less than 10000 nM. Regarding `O=C(O)c1csc([C@H]2CC[C@@H]3[C@@H](/C=C/[C@@H](O)COc4ccccc4)[C@H](O)C[C@@H]3OC2)n1` [reference compound], the EC50 is no less than 10000 nM. Regarding `CCCCC[C@H](O)/C=C/[C@@H]1[C@H]2CCC(c3ccccc3CC(=O)O)O[C@H]2C[C@H]1O` (stereo partly shown) [reference compound], the EC50 was no less than 10000 nM.
